The values that follow come from EP0184291B1, “Polyether antibiotic A80190” (ELI LILLY AND COMPANY, priority 1984, dated 1986).

In one test the test system is A. macra. Nature of the test: Resistance to antibiotics, sensitivity discs on seeded ISP No. 2 agar. The format is cell-based. The method, then: (§1) Resistance to antibiotics was measured by padding antibiotic sensitivity discs onto the surface of seeded ISP No. 2 agar plates.
(§2) Table III lists the resistance of the strain to various antibiotics at the concentrations indicated and compares it to that of A. macra.

A further test has as its system NRRL 15878. The description is as above. It counts as cell-based, Actinomadura oligospora. The method, then: as §1, §2

Where a SMILES comes first, the peptide text is derived from it. Bridges are numbered along the chain shown (N, C = ends). [ ]: non-standard residue; d: D form. The star is where a group is joined. Ileψ(thiazoline)Cys = CC[C@H](C)[C@H](N)C1=N[C@H](C(=O)*)CS1; dOrn = NCCC[C@@H](N)C(=O)O

Consider `CO[C@H]1/C=C/O[C@@]2(C)Oc3c(C)c(O)c4c(O)c(c(/C=N/N5CCN(C)CC5)c(O)c4c3C2=O)NC(=O)/C(C)=C\C=C\[C@H](C)[C@H](O)[C@@H](C)[C@@H](O)[C@@H](C)[C@H](OC(C)=O)[C@@H]1C` [Rifampin], for which, in the test on A. macra (Concentration 5 µg), the “Resistance to Antibiotics” value is “+”.

As for `CC1(C)S[C@@H]2[C@H](NC(=O)Cc3ccccc3)C(=O)N2[C@H]1C(=O)O` [Pencillin G], the “Resistance to Antibiotics” value in the test with A. macra (Concentration 10 units) is on record as “+”.

`CC(=O)OCC1=C(C(=O)O)N2C(=O)[C@@H](NC(=O)Cc3cccs3)[C@H]2SC1` [Cephalothin]: the “Resistance to Antibiotics” value with A. macra (Concentration 30 µg) is on record as “+”.

In the case of `[H]/N=C(/N)N[C@H]1[C@H](O)[C@@H](O)[C@H](O[C@@H]2O[C@@H](C)[C@](O)(C=O)[C@H]2O[C@@H]2O[C@@H](CO)[C@H](O)[C@@H](O)[C@@H]2NC)[C@@H](N/C(N)=N\[H])[C@@H]1O` [Streptomycin], the “Resistance to Antibiotics” value with A. macra (Concentration 10 µg) is reported as “+”.

For `CN[C@H](CC(C)C)C(=O)N[C@H]1C(=O)N[C@@H](CC(N)=O)C(=O)N[C@H]2C(=O)N[C@H]3C(=O)N[C@H](C(=O)N[C@H](C(=O)O)c4cc(O)cc(O)c4-c4cc3ccc4O)[C@H](O)c3ccc(c(Cl)c3)Oc3cc2cc(c3O[C@@H]2O[C@H](CO)[C@@H](O)[C@H](O)[C@H]2O[C@H]2C[C@](C)(N)[C@H](O)[C@H](C)O2)Oc2ccc(cc2Cl)[C@H]1O` [Vancomycin], the “Resistance to Antibiotics” value with NRRL 15878 (Concentration 30 µg) and with A. macra (Concentration 30 µg) was “-” each time.

As for `CC[C@H](C)[C@H](N)C1=N[C@H](C(=O)N[C@@H](CC(C)C)C(=O)N[C@H](CCC(=O)O)C(=O)N[C@H](C(=O)N[C@H]2CCCCNC(=O)[C@H](CC(N)=O)NC(=O)[C@@H](CC(=O)O)NC(=O)[C@H](Cc3cnc[nH]3)NC(=O)[C@@H](Cc3ccccc3)NC(=O)[C@H]([C@@H](C)CC)NC(=O)[C@@H](CCCN)NC2=O)[C@@H](C)CC)CS1` [Bacitracin] ({Ileψ(thiazoline)Cys}-L[dE]IK[dOrn]I[dF]H[dD]N; lactam 4-C), the “Resistance to Antibiotics” value in the test with NRRL 15878 (Concentration 10 units) is on record as “+”; with A. macra (Concentration 10 units), “-”.

As for `CN(C)[C@@H]1C(O)=C(C(N)=O)C(=O)[C@@]2(O)C(O)=C3C(=O)c4c(O)cccc4[C@@](C)(O)[C@H]3C[C@@H]12` [Tetracycline], the “Resistance to Antibiotics” value in the test on A. macra (Concentration 30 µg) is “-”.

In the case of Gentamicin, the “Resistance to Antibiotics” value in the test with NRRL 15878 (Concentration 10 µg) and in the test on A. macra (Concentration 10 µg) was “-” in each case.
